Where “and” joins values, the source holds several entries; their conditions need not be identical. Equal entries are not always repeated. Where two headings read alike, the source gives them in different places.
What was measured:
SW48 xenografts = test: SW48 cell-derived xenograft efficacy, HRO761 orally once daily; type: in vivo, mouse
Method: All animal studies were conducted in accordance with ethics and procedures covered by permit BS-2275 and BS-1975 issued by the Kantonales Veterinäramt Basel-Stadt and in strict adherence to guidelines of the Eidgenössisches Tierschutzgesetz and the Eidgenössische Tierschutzverordnung, Switzerland. All animal studies were approved by the internal ethics committee. All animals had access to food and water ad libitum and were identified with transponders. They were housed in a specific-pathogen-free facility in IVC racks under a 12 h–12 h light–dark cycle. To establish cell-line-derived xenograft models, 6–7-week-old female athymic nude (Crl:NU(NCr)-Foxn1^nu) or SCID-BEIGE (CB17.Cg-PrkdcscidLystbg-J/Crl) mice from Charles River were engrafted subcutaneously with 5 million tumour cells in HBSS (H6648, Sigma-Aldrich). For SNU-407, Lovo, IM95, RL95.2, Ishikawa and IGROV-1, the cells were concentrated in 50% Matrigel (354234, Corning). Patient-derived xenografts were induced and expanded by transplantation as previously described. […] For the efficacy experiment, mice were randomized into groups (n = 5–6) for a mean tumour size of 100–150 mm^3. […] Blood samples were collected on day 7 and 91. […] Tumour responses are reported with the measures of tumour volumes from the treatment start. […] Animals were randomized (n = 3) and tumour samples were collected at 0, 1, 4, 8 and 24 h on the first day and then collected 4 h after the last treatment on day 3, 8, 10, 14 (including a 24 h timepoint), 17 and 21. Tumours were excised, weighed, either frozen in liquid nitrogen and cryogenic dry pulverized with the CryoPrep system (model CP-02, Covaris) or processed to FFPE after fixation. […] On day 12, blood samples were collected for PK analysis. On the last day (3 h after the last treatment), tumours were excised, weighed, frozen in liquid nitrogen and cryogenic dry pulverized for PD analysis.

TGBC11TKB = test: CFA 10-14 day clonogenic assay; type: cell-based; details: Homo sapiens
SNUC2A = test: 4 day proliferation assay (CellTiter-Glo)

Structure (SMILES): CCc1c(N2CCN(C(=O)c3ncnc(C)c3O)CC2)c(=O)n2nc(C3=CCOCC3)nc2n1CC(=O)Nc1ccc(C(F)(F)F)cc1Cl [HRO761]
- Mean TVol (SW48 xenografts; HRO761 60mg/kg, day 17 post 1st dose): 92.17 mm3
- TVol, individual mouse (SW48 xenografts; HRO761 60mg/kg, day 17 post 1st dose, 60 mg/kg): 122.04 mm3 and 68.7 mm3 and 47.51 mm3 and 127.77 mm3 and 94.82 mm3
- Mean TVol (SW48 xenografts; HRO761 60mg/kg, day 21 post 1st dose): 94.01 mm3
- TVol, individual mouse (SW48 xenografts; HRO761 60mg/kg, day 21 post 1st dose, 60 mg/kg): 102.4 mm3 and 77.05 mm3 and 73.43 mm3 and 131.39 mm3 and 85.79 mm3
- Mean TVol (SW48 xenografts; HRO761 60mg/kg, day 24 post 1st dose): 58.88 mm3
- TVol, individual mouse (SW48 xenografts; HRO761 60mg/kg, day 24 post 1st dose, 60 mg/kg): 71.44 mm3 and 52.46 mm3 and 38.57 mm3 and 82.39 mm3 and 49.52 mm3
- Mean TVol (SW48 xenografts; HRO761 60mg/kg, day 28 post 1st dose): 51.50 mm3
- TVol, individual mouse (SW48 xenografts; HRO761 60mg/kg, day 28 post 1st dose, 60 mg/kg): 56.2 mm3 and 60.49 mm3 and 22.48 mm3 and 76.24 mm3 and 42.11 mm3
- Mean TVol (SW48 xenografts; HRO761 60mg/kg, day 31 post 1st dose): 37.85 mm3
- Mean TVol (SW48 xenografts; HRO761 60mg/kg, day 35 post 1st dose): 35.63 mm3
- Mean TVol (SW48 xenografts; HRO761 60mg/kg, day 38 post 1st dose): 32.12 mm3
- Mean TVol (SW48 xenografts; HRO761 60mg/kg, day 42 post 1st dose): 26.69 mm3
- Mean TVol (SW48 xenografts; HRO761 60mg/kg, day 45 post 1st dose): 28.41 mm3
- Mean TVol (SW48 xenografts; HRO761 60mg/kg, day 49 post 1st dose): 28.59 mm3
- Mean TVol (SW48 xenografts; HRO761 60mg/kg, day 52 post 1st dose): 39.66 mm3
- Mean TVol (SW48 xenografts; HRO761 60mg/kg, day 56 post 1st dose): 41.29 mm3
- Mean TVol (SW48 xenografts; HRO761 60mg/kg, day 59 post 1st dose): 58.21 mm3
- Mean TVol (SW48 xenografts; HRO761 60mg/kg, day 63 post 1st dose): 63.07 mm3
- Mean TVol (SW48 xenografts; HRO761 60mg/kg, day 66 post 1st dose): 73.43 mm3
- Mean TVol (SW48 xenografts; HRO761 60mg/kg, day 70 post 1st dose): 92.32 mm3
- Mean TVol (SW48 xenografts; HRO761 60mg/kg, day 73 post 1st dose): 100.10 mm3
- Mean TVol (SW48 xenografts; HRO761 60mg/kg, day 76 post 1st dose): 118.12 mm3
- Mean TVol (SW48 xenografts; HRO761 60mg/kg, day 79 post 1st dose): 144.54 mm3
- Mean TVol (SW48 xenografts; HRO761 60mg/kg, day 83 post 1st dose): 167.90 mm3
- Mean TVol (SW48 xenografts; HRO761 60mg/kg, day 86 post 1st dose): 197.43 mm3
- Mean TVol (SW48 xenografts; HRO761 60mg/kg, day 90 post 1st dose): 250.29 mm3
- Mean TVol (SW48 xenografts; HRO761 60mg/kg, day 92 post 1st dose): 257.93 mm3
- Mean TVol (SW48 xenografts; HRO761 120mg/kg, day 0 post 1st dose): 148.61 mm3
- Mean TVol (SW48 xenografts; HRO761 120mg/kg, day 3 post 1st dose): 165.08 mm3
- Mean TVol (SW48 xenografts; HRO761 120mg/kg, day 7 post 1st dose): 155.01 mm3
- Mean TVol (SW48 xenografts; HRO761 120mg/kg, day 10 post 1st dose): 143.90 mm3
- Mean TVol (SW48 xenografts; HRO761 120mg/kg, day 14 post 1st dose): 109.57 mm3
- TVol, individual mouse (SW48 xenografts; HRO761 120mg/kg, day 14 post 1st dose, 120 mg/kg): 89.55 mm3 and 116.21 mm3 and 96.68 mm3 and 110.56 mm3 and 134.85 mm3
- Mean TVol (SW48 xenografts; HRO761 120mg/kg, day 17 post 1st dose): 76.89 mm3
- TVol, individual mouse (SW48 xenografts; HRO761 120mg/kg, day 17 post 1st dose, 120 mg/kg): 65.99 mm3 and 76.61 mm3 and 69.65 mm3 and 76.31 mm3 and 95.9 mm3
- Mean TVol (SW48 xenografts; HRO761 120mg/kg, day 21 post 1st dose): 60.65 mm3
- TVol, individual mouse (SW48 xenografts; HRO761 120mg/kg, day 21 post 1st dose, 120 mg/kg): 36.03 mm3 and 67.66 mm3 and 49.83 mm3 and 57.7 mm3 and 92.01 mm3
- Mean TVol (SW48 xenografts; HRO761 120mg/kg, day 24 post 1st dose): 40.88 mm3
- TVol, individual mouse (SW48 xenografts; HRO761 120mg/kg, day 24 post 1st dose, 120 mg/kg): 38.27 mm3 and 45.09 mm3 and 38.11 mm3 and 31.94 mm3 and 50.97 mm3
- Mean TVol (SW48 xenografts; HRO761 120mg/kg, day 28 post 1st dose): 35.35 mm3
- TVol, individual mouse (SW48 xenografts; HRO761 120mg/kg, day 28 post 1st dose, 120 mg/kg): 32.65 mm3 and 37.62 mm3 and 34.55 mm3 and 23.01 mm3 and 48.93 mm3
- Mean TVol (SW48 xenografts; HRO761 120mg/kg, day 31 post 1st dose): 23.02 mm3
- Mean TVol (SW48 xenografts; HRO761 120mg/kg, day 35 post 1st dose): 18.60 mm3
- Mean TVol (SW48 xenografts; HRO761 120mg/kg, day 38 post 1st dose): 15.04 mm3
- Mean TVol (SW48 xenografts; HRO761 120mg/kg, day 42 post 1st dose): 15.24 mm3
- Mean TVol (SW48 xenografts; HRO761 120mg/kg, day 45 post 1st dose): 22.14 mm3
- Mean TVol (SW48 xenografts; HRO761 120mg/kg, day 49 post 1st dose): 17.54 mm3
- Mean TVol (SW48 xenografts; HRO761 120mg/kg, day 52 post 1st dose): 14.62 mm3
- Mean TVol (SW48 xenografts; HRO761 120mg/kg, day 56 post 1st dose): 23.36 mm3
- Mean TVol (SW48 xenografts; HRO761 120mg/kg, day 59 post 1st dose): 24.12 mm3
- Mean TVol (SW48 xenografts; HRO761 120mg/kg, day 63 post 1st dose): 25.71 mm3
- Mean TVol (SW48 xenografts; HRO761 120mg/kg, day 66 post 1st dose): 34.04 mm3
- Mean TVol (SW48 xenografts; HRO761 120mg/kg, day 70 post 1st dose): 39.42 mm3
- Mean TVol (SW48 xenografts; HRO761 120mg/kg, day 73 post 1st dose): 45.77 mm3
- Mean TVol (SW48 xenografts; HRO761 120mg/kg, day 76 post 1st dose): 45.68 mm3
- Mean TVol (SW48 xenografts; HRO761 120mg/kg, day 79 post 1st dose): 54.31 mm3
- Mean TVol (SW48 xenografts; HRO761 120mg/kg, day 83 post 1st dose): 66.91 mm3
- Mean TVol (SW48 xenografts; HRO761 120mg/kg, day 86 post 1st dose): 85.46 mm3
- Mean TVol (SW48 xenografts; HRO761 120mg/kg, day 90 post 1st dose): 91.43 mm3
- Mean TVol (SW48 xenografts; HRO761 120mg/kg, day 92 post 1st dose): 94.97 mm3
- Best average response (SW48 xenografts; SW48, colorectal carcinoma, 60 or 120 mg/kg): -90
- tumour regressions (SW48 xenografts; higher doses than 20 mg per kg, once daily oral, up to 60 days): 75–90%
- GI50 (TGBC11TKB): 44 nM
- GI50 (SNUC2A; Homo sapiens, 96 h, read-out: 4 day assay GI50, SNUC2A): 641 nM
- GI50 (SNUC2A; read-out: 4 day assay GI50, SNUC2A): 542 nM

— publication PMC11078746 (Nature, 2024)
